What was measured:
Format in all cases: in vivo
Design in all cases: key: 1 Pflanze abgestorben; 2-4 schwere Schädigung; 3: 2-4 schwere Schädigung; 2-4 schwere Schädigung; 5, 6 mittlere Schäden; 5, 6 mittlere Schäden; 7, 8 leichte Schäden; 7, 8 leichte Schäden; 9 Pflanze gedeiht normal, wie unbehandelte Kontrollpflanze
Cyperus difformis = experiment: Selective herbicidal action in rice, post-emergence (flooded trays); conditions: applied into paddy water, evaluated after 4 weeks
Description: (§1) Reispflänzchen, welche 25 Tage alt sind, wurden im Gewächshaus in grosse rechtackige Eternitschalen vergflanzt. Zwischen die Reiben der Reispfianzon wurden dann Samen der in Reiskulturen vorkommanden Unkräuter Echinochloa crus galli, Cyperus difformis, ? und Rotala gesät. Die Schalen wurden gut bewässert und bei einer Temperatur von ca. 25°C und hoher Luftfeuchtigkeit gehalten. Nach 12 Tagen, wenn die Unkräuter aufgelaufen sind und das 2-3 Blattstadium erreicht haben, wurde die Erde in der Schale mit einer 2,5 cm hohen Schicht Wasser bedeckt. Die Verbindung No. 2 wurde denn als Emulsionskonzentrat mittels einer-Pipette zwischen die Pflanzenreihen appliziert, wobei man das Emulsionskonzentrat so verdünnte und auftrug, dass es einer Applikationsmenge im Feld von 2 und 1 kg Wirkstoff pro Hektar entsprach. Der Versuch wurde nach 4 Wochen ausgewertat.

Ammania indica = experiment: as above; conditions: applied into paddy water, evaluated after 4 weeks
Description: as §1

Rotala indica = experiment: as above; conditions: applied into paddy water, evaluated after 4 weeks
Description: as §1

Reis [1] = experiment: as above; conditions: applied as emulsion concentrate into paddy water, evaluated after 4 weeks
Description: as §1

Echinochloa crus galli = experiment: as above; conditions: applied into paddy water, evaluated after 4 weeks
Description: as §1

chenopodium sp. = experiment: Herbicidal action, pre-emergent application (greenhouse); conditions: after 3 weeks
Description: (§2) wurde durchfolgende Versuche ermittelt: Herbizide Wirkung bei Applikation der Wirkstoffe vor dem Auflaufen der Pflanzen (pre-emergent) Im Gewächshaus werden Pflanzensamen in Blumentöpfe von ca. 11 cm Durchmesser gesät. […] Die Töpfe werden dann im Gewächshaus unter optimalen Bedingungen für das Pflanzenwachstum, regelmässiges Bewässern, einer Temperatur von 22-25°C und 50-70% relativer Luftfeuchtigkeit gehalten. Der Versuch wird nach 3 Wochen abgebrochen und der Zustand der Pflanzen gemäss dem folgenden EWRC (European Weed Research Councel) Bewertungsschema registriert: • 1 Pflanze abgestorben • 2-4 schwere Schädigung • 5, 6 mittlere Schäden • 7, 8 leichte Schäden • 9 Pflanze gedeiht normal, wie unbehandelte Kontrollpflanze.

chrysanthemum l. = experiment: as above; conditions: after 3 weeks
Description: as §2

beta vulgaris = experiment: as above; conditions: after 3 weeks
Description: as §2

amarantus retrofl. = experiment: as above; conditions: after 3 weeks
Description: as §2

Reis [2] = experiment: as above; conditions: after 3 weeks
Description: as §2

sinapis alba = experiment: as above; conditions: after 3 weeks
Description: as §2

Weizen = experiment: as above; conditions: after 3 weeks
Description: as §2

abutilon sp = experiment: as above; conditions: after 3 weeks
Description: as §2

viola tricolor = experiment: as above; conditions: after 3 weeks
Description: as §2

CCOC(=O)CCC(C)Oc1cc(Oc2ccc(C(F)(F)F)cc2Cl)ccc1Cl (stereo not shown) [Verbindung No. 2, 4-[3'-(2"-Chlor-4-trifluormethylphenoxy)-6'-chlorphenoxy]-valeriansäure-äthylester]
3: Selektive herbizide Wirkung (rating) (Cyperus difformis; 2 kg/ha) | Selektive herbizide Wirkung (rating) (Ammania indica; 1 kg/ha) | Selektive herbizide Wirkung (rating) (Rotala indica; 2 kg/ha) | Selektive herbizide Wirkung (rating) (Echinochloa crus galli; 2 kg/ha) | Zustand der Pflanzen (EWRC Bewertungsschema) (beta vulgaris; Aufwandmenge 2 kg/ha)
4: Selektive herbizide Wirkung (rating) (Rotala indica; 1 kg/ha) | Selektive herbizide Wirkung (rating) (Echinochloa crus galli; 1 kg/ha)
2: Zustand der Pflanzen (EWRC Bewertungsschema) (chenopodium sp.; Aufwandmenge 2 kg/ha) | Zustand der Pflanzen (EWRC Bewertungsschema) (viola tricolor; Aufwandmenge 2 kg/ha)
1: Selektive herbizide Wirkung (rating) (Ammania indica; 2 kg/ha) | Zustand der Pflanzen (EWRC Bewertungsschema) (chenopodium sp.; Aufwandmenge 4 kg/ha) | Zustand der Pflanzen (EWRC Bewertungsschema) (chrysanthemum l.; Aufwandmenge 2 kg/ha) | Zustand der Pflanzen (EWRC Bewertungsschema) (chrysanthemum l.; Aufwandmenge 4 kg/ha) | Zustand der Pflanzen (EWRC Bewertungsschema) (beta vulgaris; Aufwandmenge 4 kg/ha) | Zustand der Pflanzen (EWRC Bewertungsschema) (amarantus retrofl.; Aufwandmenge 2 kg/ha) | Zustand der Pflanzen (EWRC Bewertungsschema) (amarantus retrofl.; Aufwandmenge 4 kg/ha) | Zustand der Pflanzen (EWRC Bewertungsschema) (sinapis alba; Aufwandmenge 2 kg/ha) | Zustand der Pflanzen (EWRC Bewertungsschema) (sinapis alba; Aufwandmenge 4 kg/ha) | Zustand der Pflanzen (EWRC Bewertungsschema) (abutilon sp; Aufwandmenge 4 kg/ha) | Zustand der Pflanzen (EWRC Bewertungsschema) (viola tricolor; Aufwandmenge 4 kg/ha)
9: Zustand der Pflanzen (EWRC Bewertungsschema) (Reis [2]; Aufwandmenge 2 kg/ha) | Zustand der Pflanzen (EWRC Bewertungsschema) (Reis [2]; Aufwandmenge 4 kg/ha) | Zustand der Pflanzen (EWRC Bewertungsschema) (Weizen; Aufwandmenge 2 kg/ha) | Zustand der Pflanzen (EWRC Bewertungsschema) (Weizen; Aufwandmenge 4 kg/ha)
7: Selektive herbizide Wirkung (rating) (Reis [1]; 1 kg/ha) | Selektive herbizide Wirkung (rating) (Reis [1]; 2 kg/ha)
5: Selektive herbizide Wirkung (rating) (Cyperus difformis; 1 kg/ha) | Zustand der Pflanzen (EWRC Bewertungsschema) (abutilon sp; Aufwandmenge 2 kg/ha)

Reference: patent publication EP0034120A1, “Derivatives of phenoxy-phenoxy-carboxylic acids” (CIBA-GEIGY AG, priority 1980, dated 1981)
